Experiments:
Test in all cases: Test C postemergence
Format in all cases: in vivo
wild oat (Avena fatua) = conditions: Avena fatua, post-emergence, Postemergence, scale 0 to 100, read-out: Plant response rating, Oat, Wild
How it was run: (§1)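 Seeds in loam-sand soil were treated preemergence, and plants at the 1- to 4-leaf stage (2-18 cm) in peat-based medium were sprayed postemergence, with test chemicals in a non-phytotoxic solvent containing surfactant. After 13-15 days in a greenhouse, response was rated visually against controls from 0 (no effect) to 100 (complete control).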

kochia (Kochia scoparia) = conditions: Bassia scoparia, post-emergence, Postemergence, scale 0 to 100, read-out: Plant response rating, Kochia
How it was run: as §1

[1] = test system: yellow nutsedge (Cyperus esculentus); conditions: Cyperus, post-emergence, 336 h, Postemergence, scale 0 to 100, read-out: Plant response rating, Nutsedge, Yellow
How it was run: as §1

[2] = test system: winter wheat (Triticum aestivum); conditions: Triticum aestivum, post-emergence, 336 h, Postemergence, scale 0 to 100, read-out: Plant response rating, Wheat
How it was run: as §1

[3] = test system: barnyardgrass (Echinochloa crus-galli); conditions: Echinochloa crus-galli, post-emergence, Postemergence, scale 0 to 100, read-out: Plant response rating, Barnyardgrass
How it was run: as §1

[4] = test system: pigweed (Amaranthus retroflexus); conditions: Amaranthus retroflexus, post-emergence, 336 h, Postemergence, scale 0 to 100, read-out: Plant response rating, Pigweed
How it was run: as §1

[5] = test system: Italian ryegrass (Lolium multiflorum); conditions: Lolium multiflorum, post-emergence, 336 h, Postemergence, scale 0 to 100, read-out: Plant response rating, Ryegrass, Italian
How it was run: as §1

[6] = test system: chickweed (common chickweed, Stellaria media); conditions: Stellaria media, post-emergence, Postemergence, scale 0 to 100, read-out: Plant response rating, Chickweed
How it was run: as §1

[7] = test system: oilseed rape (Brassica napus); conditions: Brassica napus, post-emergence, Postemergence, scale 0 to 100, read-out: Plant response rating, Oilseed Rape
How it was run: as §1

[8] = test system: large (Lg) crabgrass (Digitaria sanguinalis); conditions: Digitaria sanguinalis, post-emergence, 336 h, Postemergence, scale 0 to 100, read-out: Plant response rating, Crabgrass, Large
How it was run: as §1

[9] = test system: johnsongrass (Sorghum halepense); conditions: Sorghum halepense, post-emergence, 336 h, Postemergence, scale 0 to 100, read-out: Plant response rating, Johnsongrass
How it was run: as §1

[10] = test system: blackgrass (Alopecurus myosuroides); conditions: Alopecurus myosuroides, post-emergence, 336 h, Postemergence, scale 0 to 100, read-out: Plant response rating, Blackgrass
How it was run: as §1

[11] = test system: morningglory (Ipomoea coccinea); conditions: Ipomoea, post-emergence, 336 h, Postemergence, scale 0 to 100, read-out: Plant response rating, Morningglory
How it was run: as §1

[12] = test system: velvetleaf (Abutilon theophrasti); conditions: Abutilon theophrasti, post-emergence, Postemergence, scale 0 to 100, read-out: Plant response rating, Velvetleaf
How it was run: as §1

[13] = test system: giant foxtail (Setaria faberii); conditions: Setaria faberi, post-emergence, 336 h, Postemergence, scale 0 to 100, read-out: Plant response rating, Foxtail, Giant
How it was run: as §1

Fc1cnc(Oc2c(Cl)cccc2Oc2ncc(Cl)cn2)nc1 [Compound 18, 5-chloro-2-[5-chloro-6-[(5-fluoro-2-pyrimidinyl)oxy]phenoxy]pyrimidine]
pest or weed control at 31 g/ha (wild oat (Avena fatua); 31 g ai/ha): 0% | pest or weed control at 62 g/ha (wild oat (Avena fatua); 62 g ai/ha): 0% | pest or weed control at 125 g/ha (wild oat (Avena fatua); 125 g ai/ha): 5% | pest or weed control at 250 g/ha (wild oat (Avena fatua); 250 g ai/ha): 30% | pest or weed control at 31 g/ha (kochia (Kochia scoparia); 31 g ai/ha): 30% | pest or weed control at 62 g/ha (kochia (Kochia scoparia); 62 g ai/ha): 50% | pest or weed control at 125 g/ha (kochia (Kochia scoparia); 125 g ai/ha): 85% | pest or weed control at 250 g/ha (kochia (Kochia scoparia); 250 g ai/ha): 95% | pest or weed control at 31 g/ha ([1]; 31 g ai/ha): 5% | pest or weed control at 62 g/ha ([1]; 62 g ai/ha): 10% | pest or weed control at 125 g/ha ([1]; 125 g ai/ha): 10% | pest or weed control at 250 g/ha ([1]; 250 g ai/ha): 10% | plant injury at 31 g/ha ([2]; 31 g ai/ha): 0% | plant injury at 62 g/ha ([2]; 62 g ai/ha): 0% | plant injury at 125 g/ha ([2]; 125 g ai/ha): 0% | plant injury at 250 g/ha ([2]; 250 g ai/ha): 15% | pest or weed control at 31 g/ha ([3]; 31 g ai/ha): 5% | pest or weed control at 62 g/ha ([3]; 62 g ai/ha): 5% | pest or weed control at 125 g/ha ([3]; 125 g ai/ha): 5% | pest or weed control at 250 g/ha ([3]; 250 g ai/ha): 10% | pest or weed control at 31 g/ha ([4]; 31 g ai/ha): 80% | pest or weed control at 62 g/ha ([4]; 62 g ai/ha): 90% | pest or weed control at 125 g/ha ([4]; 125 g ai/ha): 95% | pest or weed control at 250 g/ha ([4]; 250 g ai/ha): 98% | pest or weed control at 31 g/ha ([5]; 31 g ai/ha): 0% | pest or weed control at 62 g/ha ([5]; 62 g ai/ha): 0% | pest or weed control at 125 g/ha ([5]; 125 g ai/ha): 0% | pest or weed control at 250 g/ha ([5]; 250 g ai/ha): 40% | pest or weed control at 31 g/ha ([6]; 31 g ai/ha): 50% | pest or weed control at 62 g/ha ([6]; 62 g ai/ha): 55% | pest or weed control at 125 g/ha ([6]; 125 g ai/ha): 80% | pest or weed control at 250 g/ha ([6]; 250 g ai/ha): 95% | plant injury at 31 g/ha ([7]; 31 g ai/ha): 20% | plant injury at 62 g/ha ([7]; 62 g ai/ha): 35% | plant injury at 125 g/ha ([7]; 125 g ai/ha): 50% | plant injury at 250 g/ha ([7]; 250 g ai/ha): 80% | pest or weed control at 31 g/ha ([8]; 31 g ai/ha): 5% | pest or weed control at 62 g/ha ([8]; 62 g ai/ha): 5% | pest or weed control at 125 g/ha ([8]; 125 g ai/ha): 55% | pest or weed control at 250 g/ha ([8]; 250 g ai/ha): 70% | pest or weed control at 31 g/ha ([9]; 31 g ai/ha): 5% | pest or weed control at 62 g/ha ([9]; 62 g ai/ha): 10% | pest or weed control at 125 g/ha ([9]; 125 g ai/ha): 5% | pest or weed control at 250 g/ha ([9]; 250 g ai/ha): 10% | pest or weed control at 31 g/ha ([10]; 31 g ai/ha): 0% | pest or weed control at 62 g/ha ([10]; 62 g ai/ha): 5% | pest or weed control at 125 g/ha ([10]; 125 g ai/ha): 5% | pest or weed control at 250 g/ha ([10]; 250 g ai/ha): 45% | pest or weed control at 31 g/ha ([11]; 31 g ai/ha): 75% | pest or weed control at 62 g/ha ([11]; 62 g ai/ha): 70% | pest or weed control at 125 g/ha ([11]; 125 g ai/ha): 85% | pest or weed control at 250 g/ha ([11]; 250 g ai/ha): 95% | pest or weed control at 31 g/ha ([12]; 31 g ai/ha): 45% | pest or weed control at 62 g/ha ([12]; 62 g ai/ha): 60% | pest or weed control at 125 g/ha ([12]; 125 g ai/ha): 70% | pest or weed control at 250 g/ha ([12]; 250 g ai/ha): 85% | pest or weed control at 31 g/ha ([13]; 31 g ai/ha): 15% | pest or weed control at 62 g/ha ([13]; 62 g ai/ha): 5% | pest or weed control at 125 g/ha ([13]; 125 g ai/ha): 25% | pest or weed control at 250 g/ha ([13]; 250 g ai/ha): 45%
